The record followed here is US20260042769A1, “TRIARYL AGONISTS OF ALPHA-2 ADRENERGIC RECEPTORS” (ALCEPTOR THERAPEUTICS, INC., priority 2023, published 2026).

By EC50 is commonly meant the concentration at which the effect is half-maximal.

The target in the test is T1, human ADRA2B receptor (Homo sapiens, UniProt P18089).
T1 construct: expressed in transfected cells
T1 sequence (P18089 1-450): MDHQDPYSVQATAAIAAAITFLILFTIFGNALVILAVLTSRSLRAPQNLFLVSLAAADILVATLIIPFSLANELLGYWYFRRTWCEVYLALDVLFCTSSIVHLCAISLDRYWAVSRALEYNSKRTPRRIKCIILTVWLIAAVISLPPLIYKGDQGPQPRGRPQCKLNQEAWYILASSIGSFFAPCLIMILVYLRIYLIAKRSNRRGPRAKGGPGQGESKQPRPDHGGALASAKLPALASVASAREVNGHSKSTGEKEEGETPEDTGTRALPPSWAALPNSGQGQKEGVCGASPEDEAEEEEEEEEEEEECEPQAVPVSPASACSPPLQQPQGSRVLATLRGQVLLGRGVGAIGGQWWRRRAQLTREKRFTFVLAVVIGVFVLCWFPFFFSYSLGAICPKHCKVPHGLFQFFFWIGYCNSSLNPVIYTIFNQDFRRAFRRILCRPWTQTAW
Description: ADRA2B arrestin agonist assay. In kind it is cell-based. The settings on record: CHO-K1 cells stably expressing human ADRA2B; read-out: Beta-Arrestin - Human Alpha2B EC50. The procedure:
ADRA2A and ADRA2B Arrestin Agonist Assay Method
The arrestin assay uses frozen CHO-K1 cell lines stably expressing human ADRA2A and ADRA2B receptors. Cells are frozen following normal cell freezing protocols. Briefly, cells are washed with PBS and then dissociated with 0.25% trypsin. Dissociated cells are quenched in full media and then collected by centrifugation at 290×g for 5 minutes. […] Cells are stored at −80° C. (or in liquid N2 if stored >6 months) until the day of the assay.
On the day before the assay, frozen cells are thawed in a 37° C. water bath, brought up in 20 mL of full media, and collected via centrifugation at 290×g for 5 minutes. […] Cells are incubated overnight in a 37° C., 5% CO2 cell incubator.
On the day of the assay, agonists are diluted in Opti-MEM to 3.5x of the final assay concentration. 4 μL of agonists are added to the cells and incubated for 2 hours at 37° C. in a 5% CO2 cell incubator. 6 μL of arrestin detection reagents are dispensed onto the cells and the plates are incubated for 2 hours at room temperature. […] Plates are read on an Envision luminescence plate reader.
`Cc1cccc(C(Cc2cncc(F)c2)c2c[nH]cn2)c1F` (stereo not drawn) [Compound 322, 4-[2-(5-fluoro-3-pyridyl)-1-(2-fluoro-3-tolyl)ethyl]imidazole]: the EC50 is 0.01 to 0.05 µM.

For the molecule `Cc1cccc(C(Cc2ccnc(C(C)(C)O)n2)c2c[nH]cn2)c1C` (stereo not drawn) [Compound 353, 2-{4-[2-(4-imidazolyl)-2-(2,3-xylyl)ethyl]-2-pyrimidinyl}-2 propanol], the EC50 was under 0.01 µM.

For the molecule `Cc1nccc(CC(c2c[nH]cn2)c2cccc(Cl)c2Cl)n1` (stereo not drawn) [Compound 192, 4-[2-(2,3-dichlorophenyl)-2-(4-imidazolyl)ethyl]-2-methylpyrimidine], the EC50 is under 0.01 µM.

As to `Cc1nccc(CC(c2ccc3c(c2)OCCO3)c2c[nH]cn2)n1` (stereo not drawn) [Compound 175, 4-[2-(2,3-dihydro-1,4-benzodioxin-6-yl)-2-(4 imidazolyl)ethyl]-2-methylpyrimidine], the EC50 is over 0.5 µM.

As to `Cc1cnc(CC(c2c[nH]cn2)c2cccc(C)c2C)s1` (stereo not drawn) [Compound 385, 2-[2-(4-imidazolyl)-2-(2,3-xylyl)ethyl]-5-methyl-1,3-thiazole], the EC50 was under 0.01 µM.

As to `COc1ccc(CC(c2c[nH]cn2)c2cccc(C)c2C)cn1` (stereo not drawn) [Compound 273, 4-[2-(6-methoxy-3-pyridyl)-1-(2,3-xylyl)ethyl]imidazole], the EC50 is under 0.01 µM.

In the case of `Cc1cccc(C(Cc2ccnc(COC3CC3)n2)c2c[nH]cn2)c1C` (stereo not drawn) [Compound 208, 2-(cyclopropoxymethyl)-4-[2-(4-imidazolyl) 2-(2,3-xylyl)ethyl]pyrimidine], the EC50 is under 0.01 µM.

As for `Cc1cccc([C@H](Cc2cccc(C(C)(C)O)n2)c2c[nH]cn2)c1C` [Compound 305, 2-{6-[(S)-2-(4-imidazolyl) 2-(2,3-xylyl)ethyl]-2-pyridyl}-2-propanol], the EC50 is over 0.5 µM.

Regarding `Cc1cccc([C@H](Cc2ccn(C3COC3)n2)c2c[nH]cn2)c1C` [Compound 296, 3-[(S)-2-(4-imidazolyl)-2-(2,3-xylyl)ethyl]-1-(3-oxetanyl)pyrazole], the EC50 is 0.01 to 0.05 µM.

Regarding `Cc1cccc([C@@H](Cc2ccn(C(F)F)n2)c2c[nH]cn2)c1C` [Compound 282, 3-[(R)-2-(4-imidazolyl)-2-(2,3-xylyl)ethyl]-1-(difluoromethyl)pyrazole], the EC50 was over 0.5 µM.

In the case of `COCc1nccc(C[C@H](c2c[nH]cn2)c2cccc(C)c2C)n1` [Compound 346, 4-[(S)-2-(4-imidazolyl)-2-(2,3-xylyl)ethyl]-2-(methoxymethyl)pyrimidine], the EC50 was over 0.5 µM.

Consider `Cc1cccc([C@@H](Cc2cnco2)c2c[nH]cn2)c1F` [Compound 369, 5-[(R)-2-(2-fluoro-3-tolyl)-2-(4-imidazolyl)ethyl]-1,3-oxazole], for which the EC50 was over 0.5 µM.

As for `CCOc1ccc(CC(c2c[nH]cn2)c2cccc(C)c2C)cn1` (stereo not drawn) [Compound 293, 4-[2-(6-ethoxy-3-pyridyl)-1-(2,3-xylyl)ethyl]imidazole], the EC50 was in the range of 0.01 to 0.05 µM.

Turning to `Cc1cccc([C@H](Cc2ccnn2C)c2c[nH]cn2)c1F` [Compound 247, 5-[(S)-2-(2-fluoro-3-tolyl)-2-(4-imidazolyl)ethyl]-1-methylpyrazole], the EC50 is 0.05 to 0.5 µM.

On to `COc1c(C)cccc1C(Cc1cocn1)c1c[nH]cn1` (stereo not drawn) [Compound 388, 4-[2-(4-imidazolyl)-2-(2-methoxy-3-tolyl)ethyl]-1,3-oxazole-formic acid (1/1)], for which the EC50 was over 0.5 µM.

Take `COc1c(C)cccc1C(Cc1cn(C)nn1)c1c[nH]cn1` (stereo not drawn) [Compound 260, 4-[2-(4-imidazolyl)-2-(2-methoxy-3-tolyl)ethyl]-1-methyl-1H-1,2,3-triazole]: the EC50 was 0.05 to 0.5 µM.

Consider `Cc1cccc([C@@H](Cc2cocn2)c2c[nH]cn2)c1C` [Compound 367, 4-[(R)-2-(4-imidazolyl)-2-(2,3-xylyl)ethyl]-1,3-oxazole], for which the EC50 was over 0.5 µM.

Turning to `COc1c(C)cccc1C(Cc1cc(C)ncn1)c1c[nH]cn1` (stereo not drawn) [Compound 276, 4-[2-(4-imidazolyl)-2-(2-methoxy-3-tolyl)ethyl]-6-methylpyrimidine], the EC50 fell in the range of 0.05 to 0.5 µM.
